Results from patent US20040048834A1, “Antitumoral compounds” (priority 2000, published 2004).
Where two headings read alike, the source gives them in different places.

What was measured:
Type in all cases: cell-based
P388 = experiment: Cytotoxicity of spisulosine analogs, P388 (after Berjeron et al)
A549 [1] = experiment: Cytotoxicity of spisulosine analogs, A549 (after Berjeron et al)
HT29 = experiment: Cytotoxicity of spisulosine analogs, HT29 (after Berjeron et al)
MEL28 = experiment: Cytotoxicity of spisulosine analogs, MEL28 (after Berjeron et al)
DU145 = experiment: Cytotoxicity of spisulosine analogs, DU145 (after Berjeron et al)
5637 = experiment: Cytotoxicity MTS, solid tumors, Bladder 5637; conditions: 4-Parameter Curve Fit, NA = not active
HT-29 = experiment: Cytotoxicity MTS, solid tumors, Colon HT-29; conditions: 4-Parameter Curve Fit, NA = not active
A549 [2] = experiment: Cytotoxicity MTS, solid tumors, NSCL A549; conditions: 4-Parameter Curve Fit, NA = not active
PANC-1 = experiment: Cytotoxicity MTS, solid tumors, Pancreas PANC-1; conditions: 4-Parameter Curve Fit, NA = not active
FADU = experiment: Cytotoxicity MTS, solid tumors, Pharynx FADU; conditions: 4-Parameter Curve Fit, NA = not active
PC-3 = experiment: Cytotoxicity MTS, solid tumors, Prostate PC-3; conditions: 4-Parameter Curve Fit, NA = not active
DU-145 = experiment: Cytotoxicity MTS, solid tumors, Prostate DU-145; conditions: 4-Parameter Curve Fit, NA = not active
LNCAP = experiment: Cytotoxicity MTS, solid tumors, Prostate LNCAP; conditions: 4-Parameter Curve Fit, NA = not active
NCI-H187 = experiment: Cytotoxicity MTS, solid tumors, SCL NCI-H187; conditions: 4-Parameter Curve Fit, NA = not active
Y-79 = experiment: Cytotoxicity MTS, solid tumors, Retinoblastoma Y-79; conditions: 4-Parameter Curve Fit, NA = not active
Mel-28 = experiment: Cytotoxicity MTS, solid tumors, Melanoma Mel-28; conditions: 4-Parameter Curve Fit, NA = not active
SW 694 = experiment: Cytotoxicity MTS, solid tumors, Fibrosarcoma SW 694; conditions: 4-Parameter Curve Fit, NA = not active
CHSA = experiment: Cytotoxicity MTS, solid tumors, Chondrosarcoma CHSA; conditions: 4-Parameter Curve Fit, NA = not active
OSA-FH = experiment: Cytotoxicity MTS, solid tumors, Osteosarcoma OSA-FH; conditions: 4-Parameter Curve Fit, NA = not active
MX-1 = experiment: Cytotoxicity MTS, solid tumors, Breast MX-1; conditions: 4-Parameter Curve Fit, NA = not active
Hs746t = experiment: Cytotoxicity MTS, solid tumors, Gastric Hs746t; conditions: 4-Parameter Curve Fit, NA = not active
SK-HEP-1 = experiment: Cytotoxicity MTS, solid tumors, Liver SK-HEP-1; conditions: 4-Parameter Curve Fit, NA = not active
786-O = experiment: Cytotoxicity MTS, solid tumors, Renal 786-O; conditions: 4-Parameter Curve Fit, NA = not active
Molt 3 = experiment: Cytotoxicity MTS, leukemias/lymphomas, Molt 3; conditions: 4-Parameter Curve Fit, NA = not active, read-out: Cytotoxicity IC50 ALL (Acute lymphobalstic) Molt 3
Hut 78 = experiment: Cytotoxicity MTS, leukemias/lymphomas, Hut 78; conditions: 4-Parameter Curve Fit, NA = not active, read-out: Cytotoxicity IC50 Lymphoma (Cutaneous T cell) Hut 78
MC116 = experiment: Cytotoxicity MTS, leukemias/lymphomas, MC116; conditions: 4-Parameter Curve Fit, NA = not active, read-out: Cytotoxicity IC50 Lymphoma (undifferentiated) MC116
U-937 = experiment: Cytotoxicity MTS, leukemias/lymphomas, U-937; conditions: 4-Parameter Curve Fit, NA = not active, read-out: Cytotoxicity IC50 Lymphoma (Histiocytic) U-937
H9 = experiment: Cytotoxicity MTS, leukemias/lymphomas, H9; conditions: 4-Parameter Curve Fit, NA = not active, read-out: Cytotoxicity IC50 Lymphoma (T cell) H9
RAMOS = experiment: Cytotoxicity MTS, leukemias/lymphomas, RAMOS; conditions: 4-Parameter Curve Fit, NA = not active, read-out: Cytotoxicity IC50 Lymphoma (Burkitts B cell) RAMOS
HL-60 = experiment: Cytotoxicity MTS, leukemias/lymphomas, HL-60; conditions: read-out: Cytotoxicity IC50 AML (acute promyelocytic leukemia) HL-60, 4-Parameter Curve Fit, NA = not active, read-out: Cytotoxicity IC50 ALL (Promyelocytic leukemia) HL-60
K562 = experiment: Cytotoxicity MTS, leukemias/lymphomas, K562; conditions: 4-Parameter Curve Fit, NA = not active, read-out: Cytotoxicity IC50 CML (Chronic myelogenous) K562
ARH-77 = experiment: Cytotoxicity MTS, leukemias/lymphomas, ARH-77; conditions: 4-Parameter Curve Fit, NA = not active, read-out: Cytotoxicity IC50 Leukemia (Plasma cell) ARH-77
P3HR1 = experiment: Cytotoxicity MTS, leukemias/lymphomas, P3HR1; conditions: 4-Parameter Curve Fit, NA = not active, read-out: Cytotoxicity IC50 Lymphoma (Burkitts ascites) P3HR1
[3] = Mus musculus, P388, P388, methodology after Berjeron et al, NA=not active, read-out: Cytotoxicity IC50 P388
[4] = Homo sapiens, SK-MEL-28, MEL28, methodology after Berjeron et al, NA=not active, read-out: Cytotoxicity IC50 MEL28
[5] = Homo sapiens, DU-145, DU145, methodology after Berjeron et al, NA=not active, read-out: Cytotoxicity IC50 DU145
[6] = P388, methodology after Berjeron et al, NA=not active, read-out: Cytotoxicity IC50 P388
[7] = A549, methodology after Berjeron et al, NA=not active, read-out: Cytotoxicity IC50 A549
[8] = HT29, methodology after Berjeron et al, NA=not active, read-out: Cytotoxicity IC50 HT29
[9] = MEL28, methodology after Berjeron et al, NA=not active, read-out: Cytotoxicity IC50 MEL28
[10] = DU145, methodology after Berjeron et al, NA=not active, read-out: Cytotoxicity IC50 DU145

Q: With `CCCCCCCCCCCCCC[C@@H](O)[C@H](C)N` [drawing 44, (2S,3R)-2-Amino-3-heptadecanol] as the compound, how does the IC50 (P388; [3]) read?
A: 36.8 nM

Q: What about the IC50 (A549 [1]; Homo sapiens, A549, A549, methodology after Berjeron et al, NA=not active, read-out: Cytotoxicity IC50 A549) of the same compound?
A: 36.8 nM

Q: What about the IC50 (HT29; Homo sapiens, HT-29, HT29, methodology after Berjeron et al, NA=not active, read-out: Cytotoxicity IC50 HT29) of the same compound?
A: 36.8 nM

Q: And the IC50 (MEL28; [4])?
A: 36.8 nM

Q: What about the IC50 (DU145; [5]) of the same compound?
A: 36.8 nM

Q: Which IC50 (P388; [6]) does the source give for `CCCCCCCCCCCCCCC[C@@H](O)[C@H](C)N` [drawing 36, spisulosine-285, reference compound] here?
A: 35 nM

Q: What about the IC50 (A549 [1]; [7]) of the same compound?
A: 35 nM

Q: What about the IC50 (HT29; [8]) of the same compound?
A: 35 nM

Q: What about the IC50 (MEL28; [9]) of the same compound?
A: 175 nM

Q: And the IC50 (DU145; [10])?
A: 35 nM

Q: For `CCCCCCCCCCCCCCCC(=O)[C@@H](N)CC` [drawing 106], which IC50 (P388; [6]) is on record?
A: 29.9 nM

Q: And the IC50 (A549 [1]; [7])?
A: 29.9 nM

Q: What about the IC50 (HT29; [8]) of the same compound?
A: 29.9 nM

Q: And the IC50 (MEL28; [9])?
A: 299 nM

Q: What about the IC50 (DU145; [10]) of the same compound?
A: 29.9 nM

Q: What does the source list for `CCCCCCCCCCCCCCCC(=O)[C@H](C)N` [drawing 102]?
A: IC50 (P388; [6]): 31.3 nM; IC50 (A549 [1]; [7]): 156 nM; IC50 (HT29; [8]): 31.3 nM; IC50 (MEL28; [9]): 156 nM; IC50 (DU145; [10]): 31.3 nM

Q: With `CCCCCCCCCCCCCCCC[C@@H](O)[C@H](C)N` [drawing 113] as the compound, how does the IC50 5637 read?
A: 47.2 nM

Q: What about the IC50 (HT-29) of the same compound?
A: 64.3 nM

Q: What about the IC50 (A549 [2]) of the same compound?
A: 34.3 nM

Q: What about the IC50 (PANC-1) of the same compound?
A: 167 nM

Q: And the IC50 (FADU)?
A: 10.3 nM

Q: What about the IC50 (PC-3) of the same compound?
A: 86 nM

Q: What about the IC50 (DU-145) of the same compound?
A: 73.9 nM

Q: What about the IC50 (LNCAP) of the same compound?
A: 44.4 nM

Q: And the IC50 (NCI-H187)?
A: 163 nM

Q: What about the IC50 (Y-79) of the same compound?
A: 4650 nM

Q: And the IC50 (Mel-28)?
A: 7210 nM

Q: What about the IC50 (SW 694) of the same compound?
A: 6490 nM

Q: What about the IC50 (CHSA) of the same compound?
A: 18 nM

Q: What about the IC50 (OSA-FH) of the same compound?
A: 183 nM

Q: `CCCCCCCCCCCCCCC[C@@H](O)[C@@H](N)CF` [drawing 122] was tested. Which IC50 5637 did it give?
A: 1450 nM

Q: What about the IC50 (MX-1) of the same compound?
A: 4290 nM

Q: And the IC50 (Hs746t)?
A: 16200 nM

Q: What about the IC50 (SK-HEP-1) of the same compound?
A: 15500 nM

Q: What about the IC50 (FADU) of the same compound?
A: 3960 nM

Q: What about the IC50 (PC-3) of the same compound?
A: 21800 nM

Q: And the IC50 (DU-145)?
A: 49.5 nM

Q: What about the IC50 (786-O) of the same compound?
A: 3300 nM

Q: What about the IC50 (Y-79) of the same compound?
A: 1650 nM

Q: And the IC50 (Mel-28)?
A: 2540 nM

Q: What about the IC50 (CHSA) of the same compound?
A: 4620 nM

Q: How did the IC50 5637 turn out when `CCCCCCCCCCCCCC[C@@H](O)[C@H](C)N` [drawing 115] was run?
A: 36.5 nM

Q: What about the IC50 (HT-29) of the same compound?
A: 264 nM

Q: What about the IC50 (A549 [2]) of the same compound?
A: 10100 nM

Q: What about the IC50 (PANC-1) of the same compound?
A: 86.4 nM

Q: What about the IC50 (FADU) of the same compound?
A: 78.4 nM

Q: And the IC50 (PC-3)?
A: 379 nM

Q: And the IC50 (DU-145)?
A: 201 nM

Q: What about the IC50 (LNCAP) of the same compound?
A: 71.5 nM

Q: What about the IC50 (Mel-28) of the same compound?
A: 10300 nM

Q: And the IC50 (SW 694)?
A: 10100 nM

Q: What about the IC50 (CHSA) of the same compound?
A: 9650 nM

Q: With `CCCCCCCCCCCCCCCCC(O)C(C)N` (centres unmarked) as the compound, how does the IC50 (Molt 3) read?
A: 1120 nM

Q: And the IC50 (Hut 78)?
A: 10600 nM

Q: What about the IC50 (MC116) of the same compound?
A: 8820 nM

Q: And the IC50 (U-937)?
A: 29.8 nM

Q: `CCCCCCCCCCCCCC[C@@H](O)[C@H](C)N` [drawing 117] was tested. Which IC50 5637 did it give?
A: 3260 nM

Q: What about the IC50 (A549 [2]) of the same compound?
A: 49000 nM

Q: And the IC50 (FADU)?
A: 19600 nM

Q: For `CCCCCCCCCCCCCCCC[C@@H](O)[C@H](C)N` [drawing 37, (2S,3R)-2-Amino-3-nonadecanol], which IC50 (P388; [3]) is on record?
A: 33.4 nM

Q: And the IC50 (A549 [1]; [7])?
A: 33.4 nM

Q: What about the IC50 (HT29; [8]) of the same compound?
A: 33.4 nM

Q: What about the IC50 (MEL28; [4]) of the same compound?
A: 33.4 nM

Q: What about the IC50 (DU145; [5]) of the same compound?
A: 33.4 nM

Q: `CCCCCCCCCCCCCCCC(=O)C(N)CC` (centres unmarked) was tested. Which IC50 (Molt 3) did it give?
A: 581 nM

Q: What about the IC50 (H9) of the same compound?
A: 5980 nM

Q: And the IC50 (RAMOS)?
A: 1210 nM

Q: With `CCCCCCCCCCCCCCCC(O)C(C)N` (centres unmarked) as the compound, how does the IC50 (HL-60) read?
A: 425 nM

Q: What about the IC50 (K562) of the same compound?
A: 784 nM

Q: And the IC50 (ARH-77)?
A: 682 nM

Q: And the IC50 (H9)?
A: 1550 nM

Q: And the IC50 (Hut 78)?
A: 2160 nM

Q: What about the IC50 (RAMOS) of the same compound?
A: 2140 nM

Q: What about the IC50 (U-937) of the same compound?
A: 981 nM

Q: What about the IC50 (P3HR1) of the same compound?
A: 3370 nM

Q: Which results are given for `CCCCCCCCCCCCCCCC(=O)[C@@H](C)N`?
A: IC50 (P388; [6]): 156 nM; IC50 (A549 [1]; [7]): 156 nM; IC50 (HT29; [8]): 156 nM; IC50 (MEL28; [9]): 313 nM; IC50 (DU145; [10]): 156 nM

Q: What does the source list for `CCCCCCCCCCCCCCC[C@@H](OP(=O)(OC)OC)[C@H](C)N` [(2S,3R)-2-Amino-O-(dimethylphosphate)-3-octadecanol]?
A: IC50 (P388; Mus musculus, P388, read-out: Cytotoxicity IC50 P388): 1270 nM; IC50 (A549 [1]; Homo sapiens, A549, read-out: Cytotoxicity IC50 A549): 1270 nM; IC50 (HT29; Homo sapiens, HT-29, read-out: Cytotoxicity IC50 HT29): 1270 nM; IC50 (MEL28; Homo sapiens, SK-MEL-28, read-out: Cytotoxicity IC50 MEL28): 1270 nM; IC50 (DU145; Homo sapiens, DU-145, read-out: Cytotoxicity IC50 DU145): 1270 nM
